# Laboratory results as given in US9023789B2, “Amylin analogs and pharmaceutical compositions thereof” (Novo Nordisk A/S, priority 2012, dated 2015).
# pEC50, pIC50: −log10 of the molar value. Numbered stars: 1 amine (or outer) side, 2 acyl side, 3 side chain; on linkers, the order of the positions; unused ones are H or OH. Bridge positions count the residues as written; N and C are the ends. Side chains are listed from the residue outwards. Peptide text beside a SMILES is read from it. * marks the point of attachment. C20 diacid = O=C(O)CCCCCCCCCCCCCCCCCCC(=O)*; γGlu = O=C(O)[C@H](CCC(=O)[*:2])N[*:1]; AEEA = NCCOCCOCC(=O)O
# Experiments:
# [1] = molecular target: T1, human calcitonin receptor (Homo sapiens, UniProt P30988); assay: ASSAY (VII) binding to the human calcitonin receptor (SPA, 125I-Calcitonin); settings: read-out: hCTR bind IC50;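 note: cell membranes (35 ng/µL) combined with SPA beads in 40 µL of pH 7.4 Hepes buffer, 384-well format, signal counted on a TopCounter instrument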
# T1 construct: expressed in transfected cells
# T1 sequence (P30988 25-474): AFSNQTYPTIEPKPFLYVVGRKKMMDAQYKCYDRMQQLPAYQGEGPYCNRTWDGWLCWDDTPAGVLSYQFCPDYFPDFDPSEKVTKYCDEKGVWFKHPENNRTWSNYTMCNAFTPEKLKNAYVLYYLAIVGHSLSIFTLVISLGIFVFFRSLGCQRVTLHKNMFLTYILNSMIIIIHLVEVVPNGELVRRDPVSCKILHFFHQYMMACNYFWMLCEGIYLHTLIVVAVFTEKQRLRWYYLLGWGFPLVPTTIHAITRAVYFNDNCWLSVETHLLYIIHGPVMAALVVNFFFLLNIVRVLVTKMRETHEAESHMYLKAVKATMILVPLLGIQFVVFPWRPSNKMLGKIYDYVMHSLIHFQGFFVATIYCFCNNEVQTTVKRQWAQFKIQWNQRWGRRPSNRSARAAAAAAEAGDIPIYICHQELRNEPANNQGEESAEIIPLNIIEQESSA
# [2] = molecular target: T2, human calcitonin (a) receptor in BHK570 cells (Homo sapiens, UniProt P30988); assay: ASSAY (II)a functional assay, human calcitonin receptor (CRE luciferase); type: cell-based; settings: read-out: hCTR funct. EC50
# T2 construct: expressed in transfected cells
# T2 sequence (P30988 25-474): T1 sequence (P30988 25-474)
# In short: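 Ligand exposure 3 h at 37 °C, 5% CO2 in DMEM with 10% FBS, 10 mM Hepes pH 7.4. cAMP-driven luciferase read by luminescence after 30 min LucLite at room temperature.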
pIC50 [1],pEC50 [2],SMILES
8.31,8.32,CC[C@H](C)[C@H](NC(=O)[C@H](C)NC(=O)CNC(=O)[C@H](Cc1ccccc1)NC(=O)[C@H](CC(N)=O)NC(=O)[C@@H]1CCCN1C(=O)[C@H](CO)NC(=O)[C@H](CO)NC(=O)[C@H](Cc1c[nH]cn1)NC(=O)[C@H](CCCNC(=N)N)NC(=O)[C@H](CC(C)C)NC(=O)[C@H](Cc1ccccc1)NC(=O)[C@H](CC(N)=O)NC(=O)[C@H](C)NC(=O)[C@H](CC(C)C)NC(=O)[C@H](CCCNC(=N)N)NC(=O)[C@H](CCC(N)=O)NC(=O)[C@@H](NC(=O)[C@H](C)NC(=O)[C@@H]1CSSC[C@H](NC(=O)[C@H](CCCNC(=N)N)NC(=O)[C@@H](N)CCCCNC(=O)CC[C@H](NC(=O)CCCCCCCCCCCCCCCCCCC(=O)O)C(=O)O)C(=O)N[C@@H](CC(N)=O)C(=O)N[C@@H]([C@@H](C)O)C(=O)N[C@@H](C)C(=O)N[C@@H]([C@@H](C)O)C(=O)N1)[C@@H](C)O)C(=O)N1CCC[C@H]1C(=O)N[C@@H](CO)C(=O)N[C@@H](CO)C(=O)N[C@H](C(=O)N[C@@H](CC(N)=O)C(=O)N[C@H](C(=O)NCC(=O)N[C@@H](CO)C(=O)N[C@@H](Cc1c[nH]cn1)C(=O)N[C@H](C(=O)N[C@@H](Cc1ccc(O)cc1)C(N)=O)[C@@H](C)O)C(C)C)[C@@H](C)O [Example 44] (H-K([γGlu-C20 diacid])RCNTATCATQRLANFLRHSSPNFGAIPSSTNVGSHTY-NH2; disulfide 3-8)
7.37,8.32,CC[C@H](C)[C@H](NC(=O)[C@H](C)NC(=O)CNC(=O)[C@H](Cc1ccccc1)NC(=O)[C@H](CC(N)=O)NC(=O)[C@@H]1CCCN1C(=O)[C@H](CO)NC(=O)[C@H](CO)NC(=O)[C@H](Cc1c[nH]cn1)NC(=O)[C@H](CCCNC(=N)N)NC(=O)[C@H](CC(C)C)NC(=O)[C@H](Cc1ccccc1)NC(=O)[C@H](C)NC(=O)[C@H](C)NC(=O)[C@H](CC(C)C)NC(=O)[C@H](CCCNC(=N)N)NC(=O)[C@H](CCC(N)=O)NC(=O)[C@@H](NC(=O)[C@H](C)NC(=O)[C@@H]1CSSC[C@H](NC(=O)[C@@H](N)CCCCNC(=O)COCCOCCNC(=O)CC[C@H](NC(=O)CCCCCCCCCCCCCCCCCCC(=O)O)C(=O)O)C(=O)N[C@@H](CC(N)=O)C(=O)N[C@@H]([C@@H](C)O)C(=O)N[C@@H](C)C(=O)N[C@@H]([C@@H](C)O)C(=O)N1)[C@@H](C)O)C(=O)N1CCC[C@H]1C(=O)N[C@@H](CO)C(=O)N[C@@H](CO)C(=O)N[C@H](C(=O)N1CCC[C@H]1C(=O)N[C@H](C(=O)NCC(=O)N[C@@H](CO)C(=O)N[C@@H](CC(N)=O)C(=O)N[C@H](C(=O)N[C@@H](Cc1ccc(O)cc1)C(N)=O)[C@@H](C)O)C(C)C)[C@@H](C)O [Example 72] (H-K([AEEA-γGlu-C20 diacid])CNTATCATQRLAAFLRHSSPNFGAIPSSTPVGSNTY-NH2; disulfide 2-7 (inferred); N-terminus assumed)
7.05,7.90,CC[C@H](C)[C@H](NC(=O)[C@H](C)NC(=O)CNC(=O)[C@H](Cc1ccccc1)NC(=O)[C@H](CC(N)=O)NC(=O)[C@@H]1CCCN1C(=O)[C@H](CO)NC(=O)[C@H](CO)NC(=O)[C@H](Cc1c[nH]cn1)NC(=O)[C@H](CCCNC(=N)N)NC(=O)[C@H](CC(C)C)NC(=O)[C@H](Cc1ccccc1)NC(=O)[C@H](CCCNC(=N)N)NC(=O)[C@H](C)NC(=O)[C@H](CC(C)C)NC(=O)[C@H](CCCNC(=N)N)NC(=O)[C@H](CCC(N)=O)NC(=O)[C@@H](NC(=O)[C@H](C)NC(=O)[C@@H]1CSSC[C@H](NC(=O)[C@@H](N)CCCCNC(=O)COCCOCCNC(=O)CC[C@H](NC(=O)CCCCCCCCCCCCCCCCCCC(=O)O)C(=O)O)C(=O)N[C@@H](CC(N)=O)C(=O)N[C@@H]([C@@H](C)O)C(=O)N[C@@H](C)C(=O)N[C@@H]([C@@H](C)O)C(=O)N1)[C@@H](C)O)C(=O)N1CCC[C@H]1C(=O)N[C@@H](CO)C(=O)N[C@@H](CO)C(=O)N[C@H](C(=O)N[C@@H](CC(N)=O)C(=O)N[C@H](C(=O)NCC(=O)N[C@@H](CO)C(=O)N[C@@H](CC(N)=O)C(=O)N[C@H](C(=O)N[C@@H](Cc1ccc(O)cc1)C(N)=O)[C@@H](C)O)C(C)C)[C@@H](C)O [Example 82] (H-K([AEEA-γGlu-C20 diacid])CNTATCATQRLARFLRHSSPNFGAIPSSTNVGSNTY-NH2; disulfide 2-7; N-terminus assumed)
8.06,8.90,CC[C@H](C)[C@H](NC(=O)[C@H](C)NC(=O)CNC(=O)[C@H](Cc1ccccc1)NC(=O)[C@H](CC(N)=O)NC(=O)[C@@H]1CCCN1C(=O)[C@H](CO)NC(=O)[C@H](CO)NC(=O)[C@H](Cc1c[nH]cn1)NC(=O)[C@H](CCCNC(=N)N)NC(=O)[C@H](CC(C)C)NC(=O)[C@H](Cc1ccccc1)NC(=O)[C@H](Cc1c[nH]cn1)NC(=O)[C@H](C)NC(=O)[C@H](CC(C)C)NC(=O)[C@H](CCCNC(=N)N)NC(=O)[C@H](CCC(N)=O)NC(=O)[C@@H](NC(=O)[C@H](C)NC(=O)[C@@H]1CSSC[C@H](NC(=O)[C@@H](N)CCCCNC(=O)COCCOCCNC(=O)CC[C@H](NC(=O)CCCCCCCCCCCCCCCCCCC(=O)O)C(=O)O)C(=O)N[C@@H](CC(N)=O)C(=O)N[C@@H]([C@@H](C)O)C(=O)N[C@@H](C)C(=O)N[C@@H]([C@@H](C)O)C(=O)N1)[C@@H](C)O)C(=O)N1CCC[C@H]1C(=O)N[C@@H](CO)C(=O)N[C@@H](CO)C(=O)N[C@H](C(=O)N[C@@H](CC(N)=O)C(=O)N[C@H](C(=O)NCC(=O)N[C@@H](CO)C(=O)N[C@@H](CC(N)=O)C(=O)N[C@H](C(=O)N[C@@H](Cc1ccc(O)cc1)C(N)=O)[C@@H](C)O)C(C)C)[C@@H](C)O [Example 69] (H-K([AEEA-γGlu-C20 diacid])CNTATCATQRLAHFLRHSSPNFGAIPSSTNVGSNTY-NH2; disulfide 2-7; N-terminus assumed)
